Source: patent US20230183243A1, “HETEROARYL DERIVATIVES AND PHARMACEUTICAL COMPOSITION COMPRISING SAME AS ACTIVE INGREDIENT” (VORONOI INC., priority 2019, published 2023)

Experiments:
MDA-MB-231 cells = test: Inhibition of proliferation of triple-negative breast cancer cells, CellTiter-Glo; type: cell-based; conditions: Homo sapiens, 120 h; MDA-MB-231, cultured for 5 days
Procedure: Specifically, the following test was performed in order to evaluate the inhibitory activity of the compound according to the present invention against the cell proliferation in triple-negative breast cancer cells (TNBCs).
Cells were seeded in 180 μL of a culture broth at a density of 2,000 to 3,000 cells/well in a white clear bottom 96-well plate (Corning) according to the growth ability of each cell, and then cultured for 24 hours under conditions of 5% CO2 and 37° C. Thereafter, the compound was prepared by diluting a 10 mM stock solution three-fold with 100% DMSO at a total of 12 concentrations so that a peak concentration of the compound was in a range of 10 mM to 0.05 μM, and the diluted compound was then diluted in each cell culture medium so that a final concentration of the compound was in a range of 100 μM to 0.5 nM. 20 μL of a diluted solution diluted with a medium was added to the cell solution in which cells were seeded in the 96-well plate on the previous day so that a final concentration of the diluted solution was in a range of 10 μM to 0.05 nM. Each of the cells was cultured for 5 days. To check cell viability, a mixture provided in a CellTiter-Glo® Luminescent Cell Viability Assay Kit (Promega) was added to each of the cultured cell media, and cultured for another 10 minutes under a condition of 37° C. Then, a degree of luminescence (fluorescence) was measured. A degree of inhibition of the cell growth according to the treatment concentration of each of the compounds was calculated based on the fluorescence of the solvent control cells which were not treated with the compound.

TTK = target: T1, TTK (Homo sapiens, UniProt P33981); test: TTK enzyme activity, ADP-Glo kinase assay; type: biochemical; set-up: purchased SignalChem T20-10G; conditions: purified human TTK, ATP 10 μM, 25° C., 2 hours
T1 sequence (P33981 1-857): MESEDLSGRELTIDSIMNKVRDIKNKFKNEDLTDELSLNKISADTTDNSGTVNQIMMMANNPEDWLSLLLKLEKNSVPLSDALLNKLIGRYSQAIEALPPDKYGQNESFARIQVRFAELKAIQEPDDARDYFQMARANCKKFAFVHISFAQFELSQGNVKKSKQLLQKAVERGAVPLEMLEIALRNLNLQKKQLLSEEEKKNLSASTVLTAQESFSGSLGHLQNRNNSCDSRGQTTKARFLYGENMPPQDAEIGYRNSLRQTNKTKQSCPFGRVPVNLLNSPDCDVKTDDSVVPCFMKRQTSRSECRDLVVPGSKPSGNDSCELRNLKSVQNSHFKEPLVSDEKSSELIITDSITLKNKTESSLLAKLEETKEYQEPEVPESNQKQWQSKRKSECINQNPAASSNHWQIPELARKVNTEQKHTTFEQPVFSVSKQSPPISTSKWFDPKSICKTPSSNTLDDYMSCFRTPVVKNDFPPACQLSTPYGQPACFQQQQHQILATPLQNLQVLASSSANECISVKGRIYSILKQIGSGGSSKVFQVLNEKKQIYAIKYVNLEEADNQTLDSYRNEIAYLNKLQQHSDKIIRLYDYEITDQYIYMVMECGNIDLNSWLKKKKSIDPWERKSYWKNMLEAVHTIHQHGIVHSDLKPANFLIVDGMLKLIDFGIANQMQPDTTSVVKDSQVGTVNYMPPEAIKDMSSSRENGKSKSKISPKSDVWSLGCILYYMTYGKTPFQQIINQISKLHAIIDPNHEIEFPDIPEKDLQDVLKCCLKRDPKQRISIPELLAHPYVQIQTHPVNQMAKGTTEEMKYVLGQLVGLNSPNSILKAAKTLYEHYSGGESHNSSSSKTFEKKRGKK
Procedure: To evaluate an inhibitory activity of the compound according to the present invention against TTK (MPS1), an experiment was performed as follows.
Each of the Example compounds was reacted with a purified human TTK (SignalChem #T20-10G) enzyme to evaluate an ability to inhibit an enzyme using a method as described below. A composition of 40 mM Tris-HCl (pH 7.4), 20 mM MgCl2, 0.5 mg/mL BSA, and 50 μM DTT was used as a reaction buffer, and all reactions of test substances were performed in the reaction buffer. […] In the test, purified ATP (10 μM) and an enzyme substrate (0.2 μg) were reacted with a human TTK (25 ng) enzyme at 25° C. for 2 hours, and the enzyme activity was determined using an in vitro ADP-Glo™ kinase assay (Promega). […] The degree of inhibition of the enzyme activity according to the treatment concentration of each of the compounds was calculated based on the fluorescence of the enzyme activity of the solvent control which was not treated with the compound.

Row | Structure (SMILES) | GI50 (MDA-MB-231 cells) [nM] | IC50 (TTK) [nM]
1 | N#Cc1c[nH]c2nc(Nc3ccc(-c4ccc(CN5CCN(C6CC6)CC5)cc4)cc3)nc(NC3CCCCC3)c12 [Example 22, 4-(cyclohexylamino)-2-((4′-((4-cyclopropylpiperazin-l-yl)methyl)-[1,1′-biphenyl]-4-yl)amino)-7H-pyrrolo[2,3-d] pyrimidine-5-carbonitrile] | 100 to 1000 | < 50
2 | COc1cc(N2CCOC2=O)ccc1Nc1nc(NC2CCCCC2)c2c(C#N)c[nH]c2n1 [Example 3, 4-(cyclohexylamino)-2-((2-methoxy-4-(2-oxooxazolidin-3-yl)phenyl)amino)-7H-pyrrolo[2,3-d] pyrimidine-5-carbonitrile] | 100 to 1000 | < 50
3 | Cn1nccc1-c1ccc(Nc2nc(NC3CCC3)c3c(C#N)c[nH]c3n2)c2c1OCCO2 [Example 82, 4-(cyclobutylamino)-2-((8-(1-methyl-1H-pyrazol-5-yl)-2,3-dihydrobenzo[b][1,4]dioxin-5-yl)amino)-7H-pyrrolo[2,3-d] pyrimidine-5-carbonitrile] | < 100 | < 50
4 | CC(C)Nc1nc(Nc2ccc(-c3ccnn3C)c3c2OCCO3)nc2[nH]cc(C#N)c12 [Example 76, 4-(isopropylamino)-2-((8-(1-methyl-1H-pyrazol-5-yl)-2,3-dihydrobenzo[b][1,4]dioxin-5-yl)amino)-7H-pyrrolo[2,3-d] pyrimidine-5-carbonitrile] | < 100 | < 50
5 | COc1cc(-c2cnn(C)c2)ccc1Nc1nc(NC2CCCC2)c2c(C#N)c[nH]c2n1 [Example 43, 4-(cyclopentylamino)-2-((2-methoxy-4-(1-methyl-1H-pyrazol-4-yl)phenyl)amino)-7H-pyrrolo[2,3-d] pyrimidine-5-carbonitrile] | < 100 | < 50
6 | Cn1nccc1-c1ccc(Nc2nc(NC3CCCCC3)c3c(C#N)c[nH]c3n2)c2c1OCCO2 [Example 39, 4-(cyclohexylamino)-2-((8-(1-methyl-1H-pyrazol-5-yl)-2,3-dihydrobenzo[b][1,4]dioxin-5-yl)amino)-7H-pyrrolo[2,3-d] pyrimidine-5-carbonitrile] | < 100 | < 50
7 | COc1cc(N2CCCC2=O)ccc1Nc1nc(NC2COC2)c2c(C#N)c[nH]c2n1 [Example 73, 2-((2-methoxy-4-(2-oxopyrrolidin-1-yl)phenyl)amino)-4-(oxetan-3-ylamino)-7H-pyrrolo[2,3-d] pyrimidine-5-carbonitrile] | < 100 | < 50
8 | COc1cc(-c2ncn(C)n2)ccc1Nc1nc(NC2CCCCC2)c2c(C#N)c[nH]c2n1 [Example 27, 4-(cyclohexylamino)-2-((2-methoxy-4-(1-methyl-1H-1,2,4-triazol-3-yl)phenyl)amino)-7H-pyrrolo[2,3-d] pyrimidine-5-carbonitrile] | < 100 | < 50

More lines, now with the values ahead:

Row | GI50 (MDA-MB-231 cells) [nM] | IC50 (TTK) [nM] | Structure (SMILES)
9 | < 100 | < 50 | CCCCNc1nc(Nc2ccc(-c3nncn3C)cc2OCC)nc2[nH]cc(C#N)c12 [Example 11, 4-(butylamino)-2-((2-ethoxy-4-(4-methyl-4H-1,2,4-triazol-3-yl)phenyl)amino)-7H-pyrrolo[2,3-d] pyrimidine-5-carbonitrile]
10 | < 100 | < 50 | COc1cc(N2CCCC2=O)ccc1Nc1nc(NC(C)C)c2c(C#N)c[nH]c2n1 [Example 65, 4-(isopropylamino)-2-((2-methoxy-4-(2-oxopyrrolidin-1-yl)phenyl)amino)-7H-pyrrolo[2,3-d] pyrimidine-5-carbonitrile]
11 | < 100 | < 50 | COc1cc(N2CCCC2=O)ccc1Nc1nc(NCC(C)C)c2c(C#N)c[nH]c2n1 [Example 66, 4-(isobutylamino)-2-((2-methoxy-4-(2-oxopyrrolidin-1-yl)phenyl)amino)-7H-pyrrolo[2,3-d] pyrimidine-5-carbonitrile]
12 | < 100 | < 50 | CCC(C)Nc1nc(Nc2ccc(N3CCCC3=O)cc2OC)nc2[nH]cc(C#N)c12 (stereo in doubt) [Example 68, (S)-4-(sec-butylamino)-2-((2-methoxy-4-(2-oxopyrrolidin-1-yl)phenyl)amino)-7H-pyrrolo[2,3-d] pyrimidine-5-carbonitrile]
